Assay results as given in patent US20150104520A1, “Nanoparticle Formulations in Biomarker Detection” (priority 2013, published 2015).

System: patients with epithelial ovarian cancer
Test: Phase 2 randomized two-arm trial, IG-001 plus carboplatin vs paclitaxel plus carboplatin, 1st line
From the text: Phase II ovarian trial design: randomized, two-arm trial, primary advanced epithelial ovarian cancer consisting of 100 patients (50/each arm). […] The primary objective of the study was to determine the Composite Response by GCIG CA-125 Response and Response Evaluation Criteria in Solid Tumors (RECIST): based on non-inferiority study. […] The treatment regimen included 6 cycles of treatment with injection every three weeks and tumor screening after cycles 2, 4 and 6.

| Compound | response rate (each with carboplatin) [%] | Response n (%) (composite response by GCIG CA-125 and RECIST, IG-001 260 mg/m^2 or paclitaxel 175 mg/m^2, each + carboplatin 5 AUC, every 3 weeks, 6 cycles) | SAE Rate (%) (patients with SAE) | UAE Rate (%) (patients with UAE) |
| --- | --- | --- | --- | --- |
| CC(=O)O[C@H]1C(=O)[C@@]2(C)[C@H]([C@H](OC(=O)c3ccccc3)[C@]3(O)C[C@H](OC(=O)[C@H](O)[C@@H](NC(=O)c4ccccc4)c4ccccc4)C(C)=C1C3(C)C)[C@]1(OC(C)=O)CO[C@@H]1C[C@@H]2O [paclitaxel] | 77.8 | – | – | – |
| Paclitaxel + Carboplatin | – | 37 (77.08) n (%) | 15 (31.25) n (%) | 0 (0.00) n (%) |
